Source: article PMC2694132 (Cancer research, 2009)

Columns and labels:
[1] = target: T1, UGT1A8*3 (UGT1A8p.Cys277Tyr) (Homo sapiens, UniProt Q9HAW9, C277Y); experiment: Glucuronidation, UGT1A8*3 variant cell homogenate; format: in vitro ADME; details: data not shown
T1 sequence (Q9HAW9 26-530 C277Y): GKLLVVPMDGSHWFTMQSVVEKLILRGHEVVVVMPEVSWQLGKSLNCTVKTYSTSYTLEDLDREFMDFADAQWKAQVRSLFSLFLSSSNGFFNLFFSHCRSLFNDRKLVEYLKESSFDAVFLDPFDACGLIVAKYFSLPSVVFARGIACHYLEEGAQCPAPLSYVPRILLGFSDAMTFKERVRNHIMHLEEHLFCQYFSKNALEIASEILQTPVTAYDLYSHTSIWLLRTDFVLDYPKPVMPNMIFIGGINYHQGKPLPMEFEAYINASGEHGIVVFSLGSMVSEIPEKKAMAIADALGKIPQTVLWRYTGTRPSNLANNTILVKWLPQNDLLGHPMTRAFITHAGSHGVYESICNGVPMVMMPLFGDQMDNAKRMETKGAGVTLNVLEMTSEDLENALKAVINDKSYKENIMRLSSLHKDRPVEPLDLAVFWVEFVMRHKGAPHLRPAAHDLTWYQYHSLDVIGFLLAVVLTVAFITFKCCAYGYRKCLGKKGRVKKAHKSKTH

[2] = cited from earlier work; for apparent terminal half-life: patients treated with SAHA; for serum level relative to the parent compound (higher, on average): serum from patients treated with SAHA

glucuronidation activity against 4-methylumbelliferone [1] | SMILES | apparent terminal half-life [2] | serum level relative to the parent compound (higher, on average) [2]
detectable levels of activity | Cc1cc(=O)oc2cc(O)ccc12 [4-methylumbellifer-one] | – | –
– | O=C(CCCCCCC(=O)Nc1ccccc1)NO[C@@H]1O[C@H](C(=O)O)[C@@H](O)[C@H](O)[C@H]1O [SAHA-glucuronide] | ~ 1.8 hours | 3- to 4 fold
– | O=C(O)CCC(=O)Nc1ccccc1 [4-anilino-4-oxobutanoic acid] | 6 to 9 h | 10- to 13 fold
